Calls of active or inactive are those of the source. No cut-off for these calls is given here.

In ChEMBL document CHEMBL3822401, “PEGylated Bis-Sulfonamide Carbonic Anhydrase Inhibitors Can Efficiently Control the Growth of Several Carbonic Anhydrase IX-Expressing Carcinomas” (J Med Chem, 2016) one finds Ki, Activity and viability data, which are given here for eight compounds.

Experiment [1] deals with Carbonic anhydrase 9 (Homo sapiens, UniProt Q16790).
Description: Inhibition of human recombinant carbonic anhydrase 9 preincubated for 15 mins prior to testing by stopped-flow CO2 hydration assay
Experiment [2] deals with MDA-MB-231. The experiment in a line: Cytotoxicity against human MDA-MB-231 spheroids expressing carbonic anhydrase 9/12 assessed as cell viability at 1 mM after 24 hrs by WST8 assay. It counts as functional. A general note: Tetrazolium assays rely on reduction of a dye to a coloured formazan, in cell work by metabolically active cells.
In experiment [3] the test system is SK-OV-3. The experiment in a line: (§1) Cytotoxicity against human SKOV3 spheroids expressing carbonic anhydrase 9/12 assessed as cell viability at 100 uM after 24 hrs by WST8 assay. It counts as functional.
The test system of experiment [4] is SK-OV-3. The experiment in a line: (§2) Cytotoxicity against human SKOV3 spheroids expressing carbonic anhydrase 9/12 assessed as cell viability at 1 mM after 24 hrs by WST8 assay. The experiment is classed as functional.
Experiment [5] deals with MDA-MB-231. The experiment in a line: Cytotoxicity against human MDA-MB-231 spheroids expressing carbonic anhydrase 9/12 assessed as cell viability at 100 uM after 24 hrs by WST8 assay. It counts as functional.
For experiment [6], the system named is HT-29. The experiment can be described thus: Cytotoxicity against human HT-29 spheroids expressing carbonic anhydrase 9/12 assessed as cell viability at 1 mM after 24 hrs by WST8 assay. It counts as functional.
Experiment [7] relates to HT-29. The experiment can be described thus: Cytotoxicity against human HT-29 spheroids expressing carbonic anhydrase 9/12 assessed as cell viability at 100 uM after 24 hrs by WST8 assay. It counts as functional.
Experiment [8] is described as follows: as §1. It counts as functional. Conditions: SK-OV-3, 24 h, read-out: Activity.
The nature of experiment [9]: Cytotoxicity against human SKOV3 cells expressing carbonic anhydrase 9/12 assessed as cell viability at 1 mM after 24 hrs under normoxic conditions by MTT assay. It counts as functional. Conditions: SK-OV-3, 24 h, read-out: Activity.
Experiment [10] concerns MDA-MB-231. The experiment in a line: Cytotoxicity against human MDA-MB-231 cells expressing carbonic anhydrase 9/12 assessed as cell viability at 100 uM after 24 hrs under normoxic conditions by MTT assay. Conditions: MDA-MB-231, 24 h, read-out: Activity. It counts as functional.
The subject of experiment [11] is MDA-MB-231. The experiment in a line: Cytotoxicity against human MDA-MB-231 cells expressing carbonic anhydrase 9/12 assessed as cell viability at 10 uM after 24 hrs under normoxic conditions by MTT assay. It counts as functional. Conditions: MDA-MB-231, 24 h, read-out: Activity.
The nature of experiment [12]: as §2. The experiment is classed as functional. As to conditions: SK-OV-3, 24 h, read-out: Activity.
The nature of experiment [13]: Cytotoxicity against human SKOV3 cells expressing carbonic anhydrase 9/12 assessed as cell viability at 10 uM after 24 hrs under normoxic conditions by MTT assay. As to conditions: SK-OV-3, 24 h, read-out: Activity. The experiment is classed as functional.
Experiment [14] is described as follows: Cytotoxicity against human SKOV3 cells expressing carbonic anhydrase 9/12 assessed as cell viability at 1 mM after 24 hrs under hypoxic conditions by MTT assay. The experiment is classed as functional. As to conditions: SK-OV-3, 24 h, read-out: Activity.
The test system of experiment [15] is MDA-MB-231. The experiment can be described thus: Cytotoxicity against human MDA-MB-231 cells expressing carbonic anhydrase 9/12 assessed as cell viability at 1 mM after 24 hrs under normoxic conditions by MTT assay. The experiment is classed as functional. Conditions: MDA-MB-231, 24 h, read-out: Activity.
For experiment [16], the system named is MDA-MB-231. The experiment in a line: Cytotoxicity against human MDA-MB-231 cells expressing carbonic anhydrase 9/12 assessed as cell viability at 1 mM after 24 hrs under hypoxic conditions by MTT assay. The experiment is classed as functional. Conditions: MDA-MB-231, 24 h, read-out: Activity.
The nature of experiment [17]: Cytotoxicity against human SKOV3 cells expressing carbonic anhydrase 9/12 assessed as cell viability at 100 uM after 24 hrs under hypoxic conditions by MTT assay. The experiment is classed as functional. Conditions: SK-OV-3, 24 h, read-out: Activity.
For experiment [18], the system named is HT-29. The experiment in a line: Cytotoxicity against human HT-29 cells expressing carbonic anhydrase 9/12 assessed as cell viability at 10 uM after 24 hrs under hypoxic conditions by MTT assay. Conditions: HT-29, 24 h, read-out: Activity. It counts as functional.
Experiment [19] deals with HT-29. The experiment can be described thus: Cytotoxicity against human HT-29 cells expressing carbonic anhydrase 9/12 assessed as cell viability at 10 uM after 24 hrs under normoxic conditions by MTT assay. As to conditions: HT-29, 24 h, read-out: Activity. It counts as functional.
Experiment [20] is described as follows: Cytotoxicity against human SKOV3 cells expressing carbonic anhydrase 9/12 assessed as cell viability at 100 uM after 24 hrs under normoxic conditions by MTT assay. The experiment is classed as functional. Conditions: SK-OV-3, 24 h, read-out: Activity.
Experiment [21] deals with HT-29. The experiment in a line: Cytotoxicity against human HT-29 cells expressing carbonic anhydrase 9/12 assessed as cell viability at 100 uM after 24 hrs under normoxic conditions by MTT assay. It counts as functional. As to conditions: HT-29, 24 h, read-out: Activity.
Experiment [22] has as its system MDA-MB-231. The experiment in a line: Cytotoxicity against human MDA-MB-231 cells expressing carbonic anhydrase 9/12 assessed as cell viability at 10 uM after 24 hrs under hypoxic conditions by MTT assay. It counts as functional. Conditions: MDA-MB-231, 24 h, read-out: Activity.
Experiment [23] deals with HT-29. The experiment in a line: Cytotoxicity against human HT-29 cells expressing carbonic anhydrase 9/12 assessed as cell viability at 1 mM after 24 hrs under hypoxic conditions by MTT assay. Conditions: HT-29, 24 h, read-out: Activity. It counts as functional.
Experiment [24] deals with MDA-MB-231. The experiment can be described thus: Cytotoxicity against human MDA-MB-231 cells expressing carbonic anhydrase 9/12 assessed as cell viability at 100 uM after 24 hrs under hypoxic conditions by MTT assay. The experiment is classed as functional. As to conditions: MDA-MB-231, 24 h, read-out: Activity.
Experiment [25] has as its system HT-29. The experiment can be described thus: Cytotoxicity against human HT-29 cells expressing carbonic anhydrase 9/12 assessed as cell viability at 1 mM after 24 hrs under normoxic conditions by MTT assay. The experiment is classed as functional. As to conditions: HT-29, 24 h, read-out: Activity.
For experiment [26], the system named is HT-29. The experiment can be described thus: Cytotoxicity against human HT-29 cells expressing carbonic anhydrase 9/12 assessed as cell viability at 100 uM after 24 hrs under hypoxic conditions by MTT assay. The experiment is classed as functional. Conditions: HT-29, 24 h, read-out: Activity.
The nature of experiment [27]: Cytotoxicity against human SKOV3 cells expressing carbonic anhydrase 9/12 assessed as cell viability at 10 uM after 24 hrs under hypoxic conditions by MTT assay. It counts as functional. Conditions: SK-OV-3, 24 h, read-out: Activity.
[28] abbreviates: MDA-MB-231, 24 h, read-out: Activity.
[29] abbreviates: HT-29, 24 h, read-out: Activity.

A word on the Ki: it is a measure of affinity in units of concentration, obtained from inhibition or displacement. Low values mean higher affinity, high ones lower affinity. In the case of `NS(=O)(=O)c1nnc(NC(=O)CCC(=O)NCCOCCOCCNC(=O)CCC(=O)Nc2nnc(S(N)(=O)=O)s2)s1`, in experiment [1], the Ki came to 9.6 nM.

Take `NS(=O)(=O)c1nnc(NS(=O)(=O)c2ccc(NC(=O)CCC(=O)NCCOCCOCCNC(=O)CCC(=O)Nc3ccc(S(=O)(=O)Nc4nnc(S(N)(=O)=O)s4)cc3)cc2)s1`: the result in [2] and in experiment [5] was inactive. Besides, the outcome in experiment [3], in experiment [4], in experiment [6] and in [7] was Active. For the same compound, the affinity in experiment [1] corresponds to a Ki of 24.1 nM.

For `NS(=O)(=O)c1nnc(NC(=O)CCC(=O)NCCOCCOCCOCCOCCOCCOCCOCCOCCOCCOCCOCCOCCOCCOCCOCCOCCOCCOCCOCCOCCOCCOCCOCCOCCOCCOCCOCCOCCOCCOCCOCCOCCOCCOCCOCCOCCOCCOCCOCCOCCOCCOCCOCCOCCOCCNC(=O)CCC(=O)Nc2nnc(S(N)(=O)=O)s2)s1`, the viability at 1000 µM in experiment [2] (setting [28]) amounted to 80%; in experiment [9], 30%; in [12], 50%; in experiment [14], 30%; in [15], 30%; in experiment [16] it was 30%. The viability at 1000 µM was 60% in experiment [6] (setting [29]), 30% in experiment [23] and 30% in experiment [25]. For the same compound, the viability at 100 µM in experiment [8] was found to be 80%; in [10] it was 50%; in experiment [5] (setting [28]) it was 90%; in experiment [17], 50%; in [20], 50%; in experiment [21], 50%. Besides, the viability at 100 µM was determined as 50% in experiment [24], 50% in experiment [26] and 70% in experiment [7] (setting [29]). Besides, the viability at 10 µM in experiment [11], in [13], in experiment [18], in experiment [19], in experiment [22] and in [27] was 60% each time. The affinity in [1], expressed as Ki, was 2.5 nM.

As for `NS(=O)(=O)c1nnc(NS(=O)(=O)c2ccc(NC(=O)CCC(=O)O)cc2)s1`, the outcome in experiment [2] and in experiment [5] was inactive. Further, the outcome in experiment [3], in [4], in [6] and in [7] was Active.

Regarding `NS(=O)(=O)c1nnc(NS(=O)(=O)c2ccc(NC(=O)CCC(=O)NCCOCCOCCOCCOCCOCCOCCOCCOCCOCCOCCOCCOCCOCCOCCOCCOCCOCCOCCOCCOCCOCCOCCOCCOCCOCCOCCOCCOCCOCCOCCOCCOCCOCCOCCOCCOCCOCCOCCOCCOCCOCCOCCOCCOCCOCCNC(=O)CCC(=O)Nc3ccc(S(=O)(=O)Nc4nnc(S(N)(=O)=O)s4)cc3)cc2)s1`, the affinity in experiment [1] corresponds to a Ki of 1.7 nM.

With `NS(=O)(=O)c1ccc(NC(=O)CCC(=O)NCCOCCOCCOCCOCCOCCOCCOCCOCCOCCOCCOCCOCCOCCOCCOCCOCCOCCOCCOCCOCCOCCOCCOCCOCCOCCOCCOCCOCCOCCOCCOCCOCCOCCOCCOCCOCCOCCOCCOCCOCCOCCOCCOCCOCCOCCNC(=O)CCC(=O)Nc2ccc(S(N)(=O)=O)cc2)cc1`, the Ki in experiment [1] worked out at 4.8 nM. This Ki is about 2.8-fold higher than that of the compound before.

In the case of `NS(=O)(=O)c1ccc(NC(=O)CCC(=O)NCCOCCOCCNC(=O)CCC(=O)Nc2ccc(S(N)(=O)=O)cc2)cc1`, the outcome in [2] and in [5] was inactive. Moreover, the outcome in experiment [3], in [4], in experiment [6] and in experiment [7] was Active. Besides, in experiment [1], the affinity corresponds to a Ki of 2.9 nM.

Regarding `NS(=O)(=O)c1nnc(NC(=O)CCC(=O)O)s1`, the result in experiment [2] and in experiment [5] was inactive. In addition, the outcome in experiment [3], in experiment [4], in [6] and in [7] was Active.
